Key:
[1] = Microsomal clearance, human liver microsomes; type: in vitro ADME; settings: both, pH 7.4, Clint human
[2] = Dog blood pharmacokinetics; type: in vivo; settings: whole blood, iv, 1 mg/kg
MPS1 = biological target: T1, MPS1 (Homo sapiens, UniProt P33981); type: biochemical; settings: 2,2-dimethylazetidine 48 compared with neopentyl-like analogue (47)
T1 sequence (P33981 1-857): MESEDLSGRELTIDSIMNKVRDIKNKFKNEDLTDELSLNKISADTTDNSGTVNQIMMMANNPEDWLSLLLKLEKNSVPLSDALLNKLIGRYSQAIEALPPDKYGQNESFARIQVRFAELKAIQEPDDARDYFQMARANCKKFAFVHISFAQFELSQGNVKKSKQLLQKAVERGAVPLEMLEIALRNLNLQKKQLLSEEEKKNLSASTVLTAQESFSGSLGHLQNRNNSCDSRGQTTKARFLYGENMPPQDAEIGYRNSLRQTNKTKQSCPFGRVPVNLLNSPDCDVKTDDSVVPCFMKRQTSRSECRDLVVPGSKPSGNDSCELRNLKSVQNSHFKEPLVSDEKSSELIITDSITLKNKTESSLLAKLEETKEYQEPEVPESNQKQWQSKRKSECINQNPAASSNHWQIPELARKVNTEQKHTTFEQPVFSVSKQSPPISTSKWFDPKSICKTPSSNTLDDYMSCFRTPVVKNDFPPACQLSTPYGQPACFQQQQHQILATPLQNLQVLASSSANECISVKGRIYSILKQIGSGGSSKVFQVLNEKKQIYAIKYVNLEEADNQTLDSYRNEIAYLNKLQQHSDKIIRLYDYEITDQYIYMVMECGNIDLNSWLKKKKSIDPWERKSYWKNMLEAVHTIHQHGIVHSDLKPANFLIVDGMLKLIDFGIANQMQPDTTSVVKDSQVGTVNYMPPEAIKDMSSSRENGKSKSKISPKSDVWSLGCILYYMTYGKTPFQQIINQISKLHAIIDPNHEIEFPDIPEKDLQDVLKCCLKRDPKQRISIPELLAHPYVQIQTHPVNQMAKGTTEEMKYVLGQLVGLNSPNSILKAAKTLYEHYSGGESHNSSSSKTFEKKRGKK

COc1cc(-c2cnc(C)n2C)ccc1Nc1ncc2ccnc(NCC(C)(C)C)c2n1 [Compound 16, N^2-(4-(1,2-Dimethyl-1H-imidazol-5-yl)-2-methoxyphenyl)-N^8-neopentylpyrido[3,4-d]pyrimidine-2,8-diamine]
microsomal CLint at 1 μM [1]: 79 µL/min/mg

CCOc1cc(-c2nncn2C)ccc1Nc1ncc2cc(C)nc(NCC(C)(C)C)c2n1 [Compound 36, N^2-(2-Ethoxy-4-(4-methyl-4H-1,2,4-triazol-3-yl)phenyl)-6-methyl-N^8-neopentylpyrido[3,4-d]pyrimidine-2,8-diamine]
clearance [2]: 1.2 mL/min/kg

CCOc1cc(-c2nncn2C)ccc1Nc1ncc2cc(C)nc(N3CCC3(C)C)c2n1 [Compound 48, 8-(2,2-Dimethylazetidin-1-yl)-N-(2-ethoxy-4-(4-methyl-4H-1,2,4-triazol-3-yl)phenyl)-6-methylpyrido[3,4-d]pyrimidin-2-amine]
fold higher IC50 (MPS1): 40 fold

Reference: paper PMC6166229 (Journal of Medicinal Chemistry, 2018)
